According to patent publication US11555042B2, “Macrocyclic compounds as TRK kinases inhibitors” (FOCHON BIOSCIENCES, LTD., priority 2018, dated 2023):

Columns and labels:
Format in all cases: cell-based
KM12 cells = KM12 cells proliferation inhibition (MTS), mechanism-based assay for TRK; details: Homo sapiens, KM12, 72 h
From the text: (§1) MTS testing kit was purchased from Promega (Madison, Wis., USA). The RPMI-1640, Fetal bovine serum and Penicillin-Streptomycin were purchased from Gibco (San Francisco, Calif., USA). Dimethyl sulfoxide (DMSO) and Puromycin were purchased from Sigma (St. Louis., Mo., USA). Mouse interleukin-3 (IL-3) was purchased from Cell signaling Technology (Boston, Mass., USA).
To investigate whether a compound is able to inhibit the activity of TRK in cells, a mechanism-based assay using KM12 cells was developed. In this assay, inhibition of TRK was detected by the inhibition of KM12 cells proliferation. KM12 cells were cultured in culture flasks to 40-80% confluence in RPMI-1640 plus 10% fetal bovine serum. Cells were collected and plated onto 96-well plates at 1000 cells/well. Plates were incubated at 37° C., with 5% CO2 for 4 h. Compounds were added to the plates, the final compound concentrations were […], 123.5, 41.2, 13.7, 4.6 and 1.5 nM. Place plates at 37° C., with 5% CO2 for KM12 cells 72 h. 20 μl MTS/100 μl medium mixture solution were added to each well and incubate the plates for exactly 2 h. Stop the reaction by adding 25 μl 10% SDS per well. Measure absorbance at 490 nm and 650 nm (reference wavelength). IC50 was calculated using GraphPad Prism 5.0.

ETV6-TRKC-G623R = target: T1, ETV6-TRKC-G623R (Homo sapiens, UniProt Q16288, G623R); assay: Engineered Ba/F3 cell proliferation inhibition (MTS), ETV6-TRKC-G623R; details: 72 h
T1 construct: fused on or other part: P41212 (Transcription factor ETV6)
From the text: as §1
(§2) To investigate whether a compound is able to inhibit the activity of TRK fusion mutation in cells, a mechanism-based assay using engineered Ba/F3 cell lines stably overexpressing oncogenic rearrangement or gene mutation of TRK (TPM3-TRKA, TPM3-TRKA-G595R, AFAP1-TRKB, ETV6-TRKC and ETV6-TRKC-G623R) were developed. In this assay, inhibition of TRK fusion mutation was detected by the cell proliferation inhibition of engineered Ba/F3 cells. Engineered Ba/F3 cells were cultured in culture flasks to 40-80% confluence in RPMI-1640 supplemented with 10% fetal bovine serum, 2 ug/mL puromycin. Cells were collected and plated onto 96-well plates at desired cell density (Ba/F3-TPM3-TRKA: 3×10^4/mL, Ba/F3-TPM3-TRKA-G595R: 1×10^5/mL, Ba/F3-AFAP1-TRKB: 1×10^5/mL, Ba/F3-ETV6-TRKC: 3×10^4/mL, Ba/F3-ETV6-TRKC-G623R: 3×10^4/mL). Plates were incubated at 37° C., with 5% CO2 for 4 h. Compounds were then added to the plates with the final compound concentrations of 10000, 3333, 1111, […], 123, 41.2, 13.7, 4.6 and 1.5 nM. Plates were incubated at 37° C., with 5% CO2 for 72 h. A mixture of 20 μl MTS/100 μl medium were added to each well and the plates were incubated at 37° C., with 5% CO2 for exactly 2 h. The reaction was stopped by adding 25 μl of 10% SDS per well. The absorbance was measured at 490 nm and 650 nm (reference wavelength). IC50 was calculated using GraphPad Prism 5.0 software.

TPM3-TRKA-G595R = target: T2, TPM3-TRKA-G595R (Homo sapiens, UniProt P04629, G595R); assay: Engineered Ba/F3 cell proliferation inhibition (MTS), TPM3-TRKA-G595R; details: 72 h
T2 construct: TPM3 (tropomyosin alpha-3, P06753) fusion partner; expressed in transfected cells; host or cells: Ba/F3; the other entry of the earlier key: TPM3 (P06753, Tropomyosin alpha-3 chain)
From the text: as §1, §2

T1 sequence (Q16288 whole entry G623R, the tested form may be a part): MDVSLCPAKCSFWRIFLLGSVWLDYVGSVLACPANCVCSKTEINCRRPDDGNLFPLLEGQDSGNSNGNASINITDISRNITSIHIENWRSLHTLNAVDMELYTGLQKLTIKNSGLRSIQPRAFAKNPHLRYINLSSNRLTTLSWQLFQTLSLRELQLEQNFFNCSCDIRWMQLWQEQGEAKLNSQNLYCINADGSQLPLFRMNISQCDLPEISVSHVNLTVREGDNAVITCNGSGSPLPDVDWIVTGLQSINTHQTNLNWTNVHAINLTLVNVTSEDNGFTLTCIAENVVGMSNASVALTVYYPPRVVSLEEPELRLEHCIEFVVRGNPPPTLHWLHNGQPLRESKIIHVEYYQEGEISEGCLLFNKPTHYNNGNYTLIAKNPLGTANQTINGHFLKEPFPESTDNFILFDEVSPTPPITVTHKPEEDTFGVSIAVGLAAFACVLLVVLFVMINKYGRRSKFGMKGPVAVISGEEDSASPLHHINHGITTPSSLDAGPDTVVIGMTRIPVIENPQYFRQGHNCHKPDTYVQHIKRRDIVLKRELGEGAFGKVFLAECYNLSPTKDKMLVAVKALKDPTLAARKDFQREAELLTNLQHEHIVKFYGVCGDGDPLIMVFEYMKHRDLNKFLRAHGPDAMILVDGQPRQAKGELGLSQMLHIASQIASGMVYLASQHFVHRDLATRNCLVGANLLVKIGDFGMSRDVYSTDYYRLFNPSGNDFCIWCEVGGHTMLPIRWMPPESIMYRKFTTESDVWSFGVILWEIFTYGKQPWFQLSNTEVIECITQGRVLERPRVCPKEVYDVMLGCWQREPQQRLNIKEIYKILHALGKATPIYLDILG
T2 sequence (P04629 510-796 G595R limits assumed): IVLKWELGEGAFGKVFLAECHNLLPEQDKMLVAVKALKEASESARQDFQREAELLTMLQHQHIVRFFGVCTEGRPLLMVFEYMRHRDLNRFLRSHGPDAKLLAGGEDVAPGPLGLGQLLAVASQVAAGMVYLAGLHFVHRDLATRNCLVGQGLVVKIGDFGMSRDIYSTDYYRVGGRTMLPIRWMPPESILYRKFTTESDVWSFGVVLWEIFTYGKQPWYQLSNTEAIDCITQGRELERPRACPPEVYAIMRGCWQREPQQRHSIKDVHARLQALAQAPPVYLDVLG

Row | Compound | IC50 (KM12 cells) | IC50 (ETV6-TRKC-G623R) | IC50 (TPM3-TRKA-G595R)
1 | C[C@@H]1CNC(=O)c2cnn3ccc(nc23)N2CC[C@H]3C[C@]32c2cc(F)cnc2O1 [Example 25, (1^3E,1^4E,2^1R,2^5S,5R)-3^5-fluoro-5-methyl-4-oxa-2^2,7-diaza-1(5,3)-pyrazolo[1,5-a]pyrimidina-(3,2)-pyridina-2(2,1)-bicyclo[3.1.0]hexanacyclooctaphan-8-one] | 2 nM | 7 nM | –
2 | C[C@H]1CNC(=O)c2cnn3ccc(nc23)N2CC[C@H]3C[C@]32c2cc(F)cnc2O1 [Example 26, (1^3E,1^4E,2^1R,2^5S,5S)-3^5-fluoro-5-methyl-4-oxa-2^2,7-diaza-1(5,3)-pyrazolo[1,5-a]pyrimidina-3(3,2)-pyridina-2(2,1)-bicyclo[3.1.0]hexanacyclooctaphan-8-one] | 1 nM | 1 nM | –
3 | C[C@@H]1CCc2ccc(F)cc2C2(CC2)N(C)c2ccn3ncc(c3n2)C(=O)N1 [Example 55, (R,3′E,4′E)-5′-fluoro-2′,7′-dimethylspiro [cyclopropane-1,3′-2,8-diaza-1(5,3)-pyrazolo[1,5-a]pyrimidina-4(1,2)-benzenecyclononaphan]-9′-one] | 5 nM | 87 nM | –
4 | C[C@H]1CNC(=O)c2cnc3ccc(nn23)N2CC[C@H]3C[C@]32c2cc(F)cnc2O1 [Example 72, (2^1R,2^5S,5S,E)-3^5-fluoro-5-methyl-4-oxa-2^2,7-diaza-1(6,3)-imidazo[1,2-b]pyridazina-3(3,2)-pyridina-2(2,1)-bicyclo[3.1.0] hexanacyclooctaphan-8-one] | – | 5 nM | 3 nM
5 | CN1c2ccn3ncc(c3n2)C(=O)NC2(CCC2)COc2ncc(F)cc2C12CC2 [Example 75, (3′E,4′E)-5′-fluoro-2′-methyldispiro-[cyclobutane-1,7′-5-oxa-2,8-diaza-1(5,3)-pyrazolo[1,5-a]pyrimidina-4(3,2)-pyridinacyclononaphane-3′,1″-cyclopropan]-9′-one] | – | 19 nM | 25 nM
6 | O=C1NCCCOc2ncc(F)cc2[C@@]23C[C@@H]2CCN3c2ccn3ncc1c3n2 [Example 76, (1^3E,1^4E,2^1E,2^1R,2^5S)-3^5-fluoro-4-oxa-2^2,8-diaza-1(5,3)-pyrazolo[1,5-a]pyrimidina-3(3,2)-pyridina-2(2,1)-bicyclo[3.1.0]hexana-cyclononaphan-9-one] | – | 1 nM | –
7 | O=C1NCC2(CC2)COc2ncc(F)cc2[C@@]23C[C@@H]2CCN3c2ccn3ncc1c3n2 [Example 79, (1′R,3′E,4′E,5′S)-5′-fluorospiro-[cyclopropane-1,6′-4-oxa-2^2,8-diaza-1(5,3)-pyrazolo[1,5-a]pyrimidina-3(3,2)-pyridina-2(2,1)-bicyclo[3.1.0]hexana-cyclononaphan]-9′-one] | – | 1 nM | –
8 | CC1(C)CNC(=O)c2cnn3ccc(nc23)N2CC[C@H]3C[C@]32c2cc(F)cnc2OC1 [Example 80, (1^3E,1^4E,2^1R,2^5S)-3^5-fluoro-6,6-dimethyl-4-oxa-2^2,8-diaza-1(5,3)-pyrazolo[1,5-a] pyrimidina-3(3,2)-pyridina-2(2,1)-bicyclo [3.1.0]hexanacyclononaphan-9-one] | – | 4 nM | –
9 | O=C1NCC(F)(F)COc2ncc(F)cc2[C@@]23C[C@@H]2CCN3c2ccn3ncc1c3n2 [Example 81, (1^3E,1^4E,2^1R,2^5S)-3^5,6,6-trifluoro-4-oxa-2^2,8-diaza-1(5,3)-pyrazolo[1,5-a]pyrimidina-3(3,2)-pyridina-2(2,1)-bicyclo[3.1.0] hexanacyclononaphan-9-one] | – | 1 nM | –
10 | O=C1NCC(F)COc2ncc(F)cc2[C@@]23C[C@@H]2CCN3c2ccn3ncc1c3n2 (stereo partly shown) [Example 82, (1^3E,1^4E,2^1R,2^5S)-3^5,6-difluoro-4-oxa-2^2,8-diaza-1(5,3)-pyrazolo[1,5-a]pyrimidina-3(3,2)-pyridina-2(2,1)-bicyclo[3.1.0] hexanacyclononaphan-9-one] | – | 1 nM | –
11 | O=C1NCC(O)COc2ncc(F)cc2[C@@]23C[C@@H]2CCN3c2ccn3ncc1c3n2 (stereo partly shown) [Example 83, (1^3E,1^4E,2^1R,2^5S)-3^5-fluoro-6-hydroxy-4-oxa-2^2,8-diaza-1(5,3)-pyrazolo[1,5-a] pyrimidina-3(3,2)-pyridina-2(2,1)-bicyclo [3.1.0]hexanacyclononaphan-9-one] | – | 1 nM | –
12 | [2H]C([2H])([2H])N1c2ccn3ncc(c3n2)C(=O)NC2(CC2)COc2ccc(F)cc2C12CC2 [Example 89, (3′E,4′E)-5′-fluoro-2′-(methyl-d3)dispiro [cyclopropane-1,3′-5-oxa-2,8-diaza-1(5,3)-pyrazolo[1,5-a]pyrimidina-4(1,2)-benzena-cyclononaphan-7′,1″-cyclopropan]-9′-one] | – | 1 nM | –
13 | [2H]C([2H])([2H])N1c2ccn3ncc(c3n2)C(=O)NC2(CC2)COc2ncc(F)cc2C12CC2 [Example 91, (3′E,4′E)-5′-fluoro-2′-(methyl-d3)dispiro-[cyclopropane-1,3′-5-oxa-2,8-diaza-1(5,3)-pyrazolo[1,5-a]pyrimidina-4(3,2)-pyridina-cyclononaphane-7′,1″-cyclopropan]-9′-one] | – | 2 nM | –
14 | CN1c2ccn3ncc(c3n2)C(=O)NCC2(CC2)COc2ncc(F)cc2C12CC2 [Example 92, (3′E,4′E)-5′-fluoro-2′-methyldispiro-[cyclopropane-1,3′-5-oxa-2,9-diaza-1(5,3)-pyrazolo[1,5-a]pyrimidina-4(3,2)-pyridina-cyclodecaphane-7′,1″-cyclopropan]-10′-one] | – | 5 nM | –
15 | CN1c2ccn3ncc(c3n2)C(=O)NCC(C)(C)COc2ncc(F)cc2C12CC2 [Example 93, (3′E,4′E)-5′-fluoro-2′,7′,7′-trimethylspiro-[cyclopropane-1,3′-5-oxa-2,9-diaza-1(5,3)-pyrazolo[1,5-a]pyrimidina-4(3,2)-pyridina-cyclodecaphan]-10′-one] | – | 32 nM | –
16 | CN1c2ccn3ncc(c3n2)C(=O)NCC(F)(F)COc2ncc(F)cc2C12CC2 [Example 94, (3′E,4′E)-5′,7′,7′-trifluoro-2′-methylspiro-[cyclopropane-1,3′-5-oxa-2,9-diaza-1(5,3)-pyrazolo[1,5-a]pyrimidina-4(4,3)-pyridina-cyclodecaphan]-10′-one] | – | 25 nM | –
17 | CN1c2ccn3ncc(c3n2)C(=O)NCC(F)COc2ncc(F)cc2C12CC2 (stereo not shown) [Example 95, (3′E,4′E)-5′,7′-difluoro-2′-methylspiro-[cyclopropane-1,3′-5-oxa-2,9-diaza-1(5,3)-pyrazolo[1,5-a]pyrimidina-4(3,2)-pyridina-cyclodecaphan]-10′-one] | – | 1 nM | –
18 | CN1c2ccn3ncc(c3n2)C(=O)NCC(O)COc2ncc(F)cc2C12CC2 (stereo not shown) [Example 96, (3′E,4′E)-5′-fluoro-7′-hydroxy-2′-methyl-spiro[cyclopropane-1,3′-5-oxa-2,9-diaza-1(5,3)-pyrazolo[1,5-a]pyrimidina-4(3,2)-pyridinacyclodecaphan]-10′-one] | – | 4 nM | –
19 | [2H]C([2H])([2H])N1c2ccn3ncc(c3n2)C(=O)NC2(CCc3ncc(F)cc3C13CC3)CC2 [Example 97, (3′E,4′E)-5′-fluoro-2′-(methyl-d3)-dispiro [cyclopropane-1,3′-2,8-diaza-1(5,3)-pyrazolo[1,5-a]pyrimidina-4(3,2)-pyridinacyclononaphane-7′,1″- cyclopropan]-9′-one] | – | 25 nM | –
20 | Nc1nn2ccc3nc2c1C(=O)NC1(CC1)COc1ncc(F)cc1[C@@]12C[C@@H]1CCN32 [Example 98, (1′R,3′E,4′E,5′S)-2′-amino-5′-fluorospiro-[cyclopropane-1,6′-4-oxa-2^2,7-diaza-1(5,3)-pyrazolo[1,5-a]pyrimidina-3(3,2)-pyridina-2(2,1)-bicyclo[3.1.0]-hexanacyclooctaphan]-8′-one] | – | 1 nM | –
